Experimental data from patent US20250098726A1, “AEROSOLISABLE MATERIAL” (Nicoventures Trading Limited, priority 2022, published 2025).

Assay: solubility trial of sensates in propylene glycol/glycerol mixture
Format: physicochemical
Settings: PG:VG 70:30, sensate w/w % subtracted from PG (Symheat PV 1, WS-3 0.8, Ginger Extract 0.1 w/w %); one hour following addition of VG
Excerpt: Formulations were produced containing propylene glycol (PG) and glycerol (VG) at a 70:30 ratio with the w/w % sensate addition subtracted from the w/w % of propylene glycol as is typical in the art.

**Q.** Which Soluble does the source give for `CCNC(=O)[C@@H]1C[C@H](C)CC[C@H]1C(C)C` (stereo in doubt) [WS-3, N-ethyl-5-methyl-2-propan-2-ylcyclohexane-1-carboxamide] here?
**A.** ✓
